Values quoted from earlier work as cited in US20040170683A1, “Tablets comprising modafinil” (priority 2003, published 2004).

Columns and labels:
[1] = capsules containing the finer particles versus capsules containing the coarser particles
[2] = oral, human trials; median particle size between 30 and 50 microns versus between 80 and 150 microns

In the case of `NC(=O)C[S+]([O-])C(c1ccccc1)c1ccccc1` (centres unmarked) [modafinil, Modafinil], the dissolution of capsules [1] is given as “substantially faster” and the extent of absorption [2] is given as “greater extent of absorption”.
